Assay results reported in patent publication EP0181592B1, “Use of spergualin derivatives for the preparation of medicaments having immunosuppressive activity” (MICROBIAL CHEMISTRY RESEARCH FOUNDATION, priority 1984, dated 1986).

How the values were obtained:
[1] = tested on: Spleen cells from BALB/C mice; test: Inhibition of ConA-induced T-lymphocyte blast genesis (3H-thymidine uptake); type: cell-based; details: for inhibition of the reaction of T-lymphocyte blast genesis (in words): ConA-stimulated; for inhibition at 10 µg/mL / inhibition at 100 µg/mL: Mus musculus, T-lymphocyte, ConA 5 µg/ml, 72 hours; for inhibition at 10 µg/mL: 10 µg/ml compound; for inhibition at 100 µg/mL: 100 µg/ml compound
Experimental: (§1) Spleen cells from BALB/C mice were distributed among wells in a microplate so that each well contained 2 x 10⁵ cells/0.2 ml. Each of the selected test compounds was added to all wells but one, the latter being used as a control. ConA (5 µg/ml) was added to all the wells and the so prepared cell suspensions were cultivated in a 5% CO₂ incubator for 72 hours at 37°C. Eight hours before the completion of the incubation, 1 µCi of ³H-thymidine was added to each well and the uptake of the thymidine by the cultured cells was measured with a liquid scintillation counter to estimate the progress of reaction of T-lymphocyte blast genesis. The percentage inhibition of the genesis by each of the test compounds was calculated by: (1 - Bdpm/Adpm) x 100 wherein Adpm indicates the uptake count for the addition of ConA alone and Bdpm, the count for the addition of both ConA and the test compound.

[2] = tested on: Spleen cells from BALB/C mice; test: Inhibition of LPS-induced B-lymphocyte blast genesis (3H-thymidine uptake); type: cell-based; details: for suppression of LPS-induced genesis of B-lymphocyte blasts (in words): LPS-stimulated; for inhibition at 10 µg/mL / inhibition at 100 µg/mL: Mus musculus, 100 µg/ml of LPS from E. coli; for inhibition at 10 µg/mL: 10 µg/ml compound; for inhibition at 100 µg/mL: 100 µg/ml compound
Experimental: as §1
The uptake of ³H-thymidine by B-cell blasts was measured in accordance with the method used in Test Example 2, except that the inducer ConA was replaced by 100 µg/ml of LPS from E. coli. The percentage inhibition of blast genesis by selected test compounds was also determined by the same method as used in Text Example 2.

[3] = tested on: Mice Sensitized by Sheep Red Blood Cells; test: Inhibition of delayed-type hypersensitivity in mice sensitized by sheep red blood cells (footpad swelling); type: in vivo, CDFl mice; details: relative to saline control = 100%, measured at the 24th hour
Experimental: CDFl mice (8-wk-old, female) were sensitized by intravenous injection of 1 x 10⁵ sheep red blood cells. Four days later, the sensitized mice were subcutaneously injected in one footpad with 1 x 10⁸ sheep red blood cells so as to induce delayed-type hypersensitivity. The swelling of the footpad was measured at the 24th hour with a micrometer. Each of the test compounds was administered intraperitoneally in the amounts (mg/kg) indicated in Table 3 for a period of 3 days that started on the day following the initial sensitization. The degree of footpad swelling was indicated in relative values, with the value for a control given physiological saline instead of the test compounds being taken as 100%.

[4] = Toxicity to mice (LD50, single intraperitoneal administration); details: mouse, in vivo, ip, read-out: LD₅₀
From the text: The compounds of the formula I are characterized by relatively low toxicity and small accumulation of toxicity upon continuous administration.

CDFl mice = test: Inhibition of production of antibodies against sheep red blood cells (plaque-forming spleen cells); type: in vivo; details: 12.5 mg/kg per day intraperitoneally for 3 days; plaque-forming spleen cells counted
From the text: The compounds of the formula I exert inhibitory effects on the function of lymphocytes of immunological importance. […] Therefore in vivo experiments have been conducted to examine the effects of the compounds of the formula I on T-lymphocytes. First, in accordance with the method of Lagrange et al. (Lagrange et al., Journal of Experimental Medicine, 139, 528-542, 1974), the compounds of the formula I were examined for their effects on delayed-type hypersensivity in mice that had been sensitized with sheep red blood cells. The delayed-type hypersensivity could be blocked by administering the compound for three consecutive days following the sensitization with sheep red blood cells. Additionally, in accordance with the method of Jerne et al. (Jerne et al., Cell-bound Antibodies, pp. 109-122, 1963), the compounds of the formula I were checked for their effects on the plaque-forming ability of spleen cells from mice sensitized by antigenic sheep red blood cells.
CDFl mice (6-10 wk old, female) were immunized by intravenous injection of 1 x 10⁸ sheep red blood cells. The mice were intraperitoneally administered 12.5 mg/kg per day of selected test compounds for a period of 3 days starting from the day following the intravenous injection. Four days later, spleen cells were isolated from the mice and the number of plaque-forming cells was counted. The percentage inhibition of antibody production was calculated by (1 - B/A) x 100 wherein A is the count for a control group (given physiological saline) and B, for the treated group.

[5] = 6.25 mg/kg intraperitoneally for 3 days
[6] = 25 mg/kg intraperitoneally for 3 days
[7] = 3.13 mg/kg intraperitoneally for 3 days
[8] = 12.5 mg/kg intraperitoneally for 3 days
[9] = 0.78 mg/kg intraperitoneally for 3 days
[10] = 0.20 mg/kg intraperitoneally for 3 days

SMILES	inhibition of the reaction of T-lymphocyte blast genesis (in words) [1]	inhibition at 10 µg/mL [1] [%]	inhibition at 100 µg/mL [1] [%]	suppression of LPS-induced genesis of B-lymphocyte blasts (in words) [2]	inhibition at 10 µg/mL [2] [%]	inhibition at 100 µg/mL [2] [%]	Footpad swelling (%) [3, 5] [%]	Footpad swelling (%) [3, 6] [%]	LD50 [4] [mg/kg]	percentage inhibition of antibody production (CDFl mice)	Footpad swelling (%) [3, 7] [%]	Footpad swelling (%) [3, 8] [%]	Footpad swelling (%) ([3]; 0.39 mg/kg intraperitoneally for 3 days)	Footpad swelling (%) [3, 9] [%]	Footpad swelling (%) [3, 10] [%]
N=C(N)Nc1ccc(CCCC(=O)NCC(=O)NCCCCNCCCN)cc1 [(6), N-[4-(3-aminopropyl)aminobutyl]-2-[4-(p-guanidinophenyl)butaneamido]ethaneamide]	strong ability to inhibit	99	100	highly effective in suppressing	96	100	102	33	25 to 50	92,9%	–	–	–	–	–
N=C(N)NCCCCC=CC(=O)NC(O)C(=O)NCCCCNCCCN (centres unmarked) [(11), N-[4-(3-aminopropyl)aminobutyl]-2-[7-guanidinohepta-2-enamido]-2-hydroxyethaneamide]	strong ability to inhibit	88	100	highly effective in suppressing	98	100	–	–	25 to 50	–	40	8.5	–	–	–
N=C(N)NCCCC[C@H](O)CC(=O)NC(O)C(=O)NCCCCNCCCN (some centres unmarked) [Spergualin]	–	–	–	–	–	–	–	–	–	–	106	28	–	–	–
N=C(N)NCc1ccc(CCC(=O)N[C@@H](CO)C(=O)NCCCCNCCCN)cc1 [(8), N-[4-(3-aminopropyl)aminobutyl]-2-[3-(p-guanidinomethylphenyl)propaneamido]-(S)-2-hydroxymethylethaneamide]	strong ability to inhibit	79	100	–	–	–	–	–	25 to 50	–	50	20	–	–	–
N=C(N)NCCCCCCC(=O)NCC(=O)NCCCCNCCCN [(4), N-[4-(3-aminopropyl)aminobutyl]-2-(7-guanidinoheptaneamido)-ethaneamide]	strong ability to inhibit	99	100	highly effective in suppressing	100	100	46	–	12.5 to 25	89,4%	–	–	99	111	–
COC(NC(=O)C=CCCCCNC(=N)N)C(=O)NCCCCNCCCN (centres unmarked) [(10), N-[4-(3-aminopropyl)aminobutyl]-2-[7-guanidinohepta-2-enamido]-2-methoxyethaneamide]	–	–	–	–	–	–	–	–	25 to 50	–	37	6.0	–	–	–
N=C(N)Nc1ccc(CCCCC(=O)N[C@@H](CO)C(=O)NCCCCNCCCN)cc1 [(9), N-[4-(3-aminopropyl)aminobutyl]-2-[5-(p-guanidinophenyl)-pentaneamido]-(S)-2-hydroxymethylethaneamide]	–	–	–	–	–	–	–	–	25 to 50	–	45	52	–	–	–
N=C(N)NCCCCCCC(=O)NC(O)C(=O)NCCCCNCCCN (centres unmarked) [(1), N-[4-(3-aminopropyl)aminobutyl]-2-(7-guanidinoheptaneamido)-2-hydroxyethaneamide]	strong ability to inhibit	93	100	highly effective in suppressing	98	100	–	–	25 to 50	98.5%	29	15	–	87	72
COC(NC(=O)CCCCCCNC(=N)N)C(=O)NCCCCNCCCN (centres unmarked) [(2), N-[4-(3-aminopropyl)aminobutyl]-2-(7-guanidinoheptaneamino)-2-methoxyethaneamide]	–	–	–	–	–	–	–	–	12.5 to 25	95.9%	5.5	–	–	49	99
N=C(N)NCCCCCCC(=O)N[C@@H](CO)C(=O)NCCCCNCCCN [(5), N-[4-(3-aminopropyl)aminobutyl]-2-(7-guanidinoheptaneamido)-(S)-2-hydroxymethylethaneamide]	strong ability to inhibit	96	100	highly effective in suppressing	88	100	–	–	12.5 to 25	89,4%	58	–	–	117	81
N=C(N)NCCCCCCCCC(=O)NC(O)C(=O)NCCCCNCCCN (centres unmarked) [(3), N-[4-(3-aminopropyl)aminobutyl]-2-(9-guanidinononaneamido)-2-hydroxyethaneamide]	–	–	–	–	–	–	–	–	12.5 to 25	–	11	6.6	–	32	55
N=C(N)Nc1ccc(CCCC(=O)N[C@@H](CO)C(=O)NCCCCNCCCN)cc1 [(7), N-[4-(3-aminopropyl)aminobutyl]-2-[4-(p-guanidinophenyl)-butaneamido]-(S)-2-hydroxymethylethaneamide]	–	–	–	–	–	–	54	42	25 to 50	–	–	–	–	–	–
